Experimental data from patent US20230365592A1 (Agios Pharmaceuticals, Inc., priority 2022, published 2023).

Target: T1, human PAH with the R408W mutation (Homo sapiens, UniProt P00439, R408W)
T1 construct: expressed in transfected cells
T1 sequence (P00439 1-452 R408W): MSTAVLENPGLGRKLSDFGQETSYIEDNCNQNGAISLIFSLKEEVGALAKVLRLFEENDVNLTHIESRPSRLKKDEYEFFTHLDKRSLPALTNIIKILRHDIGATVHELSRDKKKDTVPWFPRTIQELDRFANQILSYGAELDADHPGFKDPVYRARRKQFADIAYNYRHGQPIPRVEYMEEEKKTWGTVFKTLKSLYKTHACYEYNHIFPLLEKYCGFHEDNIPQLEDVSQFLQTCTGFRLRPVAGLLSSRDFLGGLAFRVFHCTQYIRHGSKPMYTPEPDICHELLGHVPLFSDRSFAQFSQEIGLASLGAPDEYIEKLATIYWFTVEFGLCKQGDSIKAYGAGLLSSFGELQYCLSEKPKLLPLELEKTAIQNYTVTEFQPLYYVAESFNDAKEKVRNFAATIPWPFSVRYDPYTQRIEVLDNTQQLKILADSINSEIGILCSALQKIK
Experiment: Cell Based Phenylalanine Flux Assay;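 also: after compound treatment, cells received sepiapterin plus isotope-labelled Phenylalanine for 4 hours, then labelled Tyrosine in the medium was quantified, 10-point 2-fold dilution series run in duplicate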
Details: A375 cells expressing human PAH R408W; 24 hrs compound incubation; 13C-Tyrosine by LC-MS; average where tested multiple times; read-out: AC50

| AC50 [nM] | SMILES |
| --- | --- |
| < 500 | Cc1nnc(N2CCc3[nH]cnc3[C@H]2c2cc3c(C4CC4)cccn3n2)o1 [Example 2187, (S)-2-(4-(4-cyclopropylpyrazolo[1,5-a]pyridin-2-yl)-1,4,6,7-tetrahydro-5H-imidazo[4,5-c]pyridin-5-yl)-5-methyl-1,3,4-oxadiazole] |
| 500 to 1000 | Cc1cccn2nc([C@@H]3c4nc[nH]c4CCN3c3nnc(C4(C)CC4)o3)cc12 [Example 2189, (S)-2-(1-methylcyclopropyl)-5-(4-(4-methylpyrazolo[1,5-a]pyridin-2-yl)-1,4,6,7-tetrahydro-5H-imidazo[4,5-c]pyridin-5-yl)-1,3,4-oxadiazole] |
| 500 to 1000 | CC(F)(F)c1nnc(N2CCc3[nH]cnc3[C@H]2c2cc3ccccn3n2)o1 [Example 2191, (S)-2-(1,1-difluoroethyl)-5-(4-(pyrazolo[1,5-a]pyridin-2-yl)-1,4,6,7-tetrahydro-5H-imidazo[4,5-c]pyridin-5-yl)-1,3,4-oxadiazole] |
| < 500 | Cc1cccn2nc([C@@H]3c4nc[nH]c4CCN3c3nnc(C(C)(F)F)o3)cc12 [Example 2193, (S)-2-(1,1-difluoroethyl)-5-(4-(4-methylpyrazolo[1,5-a]pyridin-2-yl)-1,4,6,7-tetrahydro-5H-imidazo[4,5-c]pyridin-5-yl)-1,3,4-oxadiazole] |
| < 500 | CC(F)(F)c1nnc(N2CCc3[nH]cnc3[C@H]2c2cc3c(C(F)(F)F)cccn3n2)o1 [Example 2195, (S)-2-(1,1-difluoroethyl)-5-(4-(4-(trifluoromethyl)pyrazolo[1,5-a]pyridin-2-yl)-1,4,6,7-tetrahydro-5H-imidazo[4,5-c]pyridin-5-yl)-1,3,4-oxadiazole] |
| 500 to 1000 | CC(F)(F)c1nnc(N2CCc3[nH]cnc3[C@H]2c2cc3c(F)cccn3n2)o1 [Example 2197, (S)-2-(1,1-difluoroethyl)-5-(4-(4-fluoropyrazolo[1,5-a]pyridin-2-yl)-1,4,6,7-tetrahydro-5H-imidazo[4,5-c]pyridin-5-yl)-1,3,4-oxadiazole] |
| < 500 | COc1cccn2nc([C@@H]3c4nc[nH]c4CCN3c3ncc(C(F)(F)F)cn3)cc12 [Example 2200, (S)-4-(4-methoxypyrazolo[1,5-a]pyridin-2-yl)-5-(5-(trifluoromethyl)pyrimidin-2-yl)-4,5,6,7-tetrahydro-1H-imidazo[4,5-c]pyridine] |
| > 5000 | COc1cccn2nc([C@H]3c4nc[nH]c4CCN3c3ncc(C(F)(F)F)cn3)cc12 [Example 2201, (R)-4-(4-methoxypyrazolo[1,5-a]pyridin-2-yl)-5-(5-(trifluoromethyl)pyrimidin-2-yl)-4,5,6,7-tetrahydro-1H-imidazo[4,5-c]pyridine] |
| > 5000 | CC(F)(F)c1nnc(N2CCc3[nH]cnc3[C@@H]2c2cc3c(C(F)F)cccn3n2)o1 [Example 2202, (R)-2-(1,1-difluoroethyl)-5-(4-(4-(difluoromethyl)pyrazolo[1,5-a]pyridin-2-yl)-1,4,6,7-tetrahydro-5H-imidazo[4,5-c]pyridin-5-yl)-1,3,4-oxadiazole] |
| < 500 | CC(F)(F)c1nnc(N2CCc3[nH]cnc3[C@H]2c2cc3c(C(F)F)cccn3n2)o1 [Example 2203, (S)-2-(1,1-difluoroethyl)-5-(4-(4-(difluoromethyl)pyrazolo[1,5-a]pyridin-2-yl)-1,4,6,7-tetrahydro-5H-imidazo[4,5-c]pyridin-5-yl)-1,3,4-oxadiazole] |
| < 500 | CC(F)(F)c1nnc(N2CCc3[nH]cnc3[C@H]2c2cc3c(C4CC4)cccn3n2)o1 [Example 2205, (S)-2-(4-(4-cyclopropylpyrazolo[1,5-a]pyridin-2-yl)-1,4,6,7-tetrahydro-5H-imidazo[4,5-c]pyridin-5-yl)-5-(1,1-difluoroethyl)-1,3,4-oxadiazole] |
| > 5000 | FC(F)c1nnc(N2CCc3[nH]cnc3[C@@H]2c2cc3cccc(C(F)F)n3n2)o1 [Example 2220, (R)-2-(difluoromethyl)-5-(4-(7-(difluoromethyl)pyrazolo[1,5-a]pyridin-2-yl)-1,4,6,7-tetrahydro-5H-imidazo[4,5-c]pyridin-5-yl)-1,3,4-oxadiazole] |
| 1000 to 5000 | FC(F)c1nnc(N2CCc3[nH]cnc3[C@H]2c2cc3cccc(C(F)F)n3n2)o1 [Example 2221, (S)-2-(difluoromethyl)-5-(4-(7-(difluoromethyl)pyrazolo[1,5-a]pyridin-2-yl)-1,4,6,7-tetrahydro-5H-imidazo[4,5-c]pyridin-5-yl)-1,3,4-oxadiazole] |
| < 500 | CC(C)c1cccn2nc([C@@H]3c4nc[nH]c4CCN3c3nnc(C(C)(F)F)o3)cc12 [Example 2231, (S)-2-(1,1-difluoroethyl)-5-(4-(4-isopropylpyrazolo[1,5-a]pyridin-2-yl)-1,4,6,7-tetrahydro-5H-imidazo[4,5-c]pyridin-5-yl)-1,3,4-oxadiazole] |
| 500 to 1000 | Cc1ncccc1-c1nnc(N2CCc3[nH]cnc3[C@H]2c2cc3c(C(C)C)cccn3n2)o1 [Example 2234, (S)-2-(4-(4-isopropylpyrazolo[1,5-a]pyridin-2-yl)-1,4,6,7-tetrahydro-5H-imidazo[4,5-c]pyridin-5-yl)-5-(2-methylpyridin-3-yl)-1,3,4-oxadiazole] |
| > 5000 | Cc1ncccc1-c1nnc(N2CCc3[nH]cnc3[C@@H]2c2cc3c(C(C)C)cccn3n2)o1 [Example 2235, (R)-2-(4-(4-isopropylpyrazolo[1,5-a]pyridin-2-yl)-1,4,6,7-tetrahydro-5H-imidazo[4,5-c]pyridin-5-yl)-5-(2-methylpyridin-3-yl)-1,3,4-oxadiazole] |

Second part, the compound before the results:

| SMILES | AC50 [nM] |
| --- | --- |
| Clc1cccn2nc([C@@H]3c4nc[nH]c4CCN3c3nnc(-c4cccnn4)o3)cc12 [Example 2198, (S)-2-(4-(4-chloropyrazolo[1,5-a]pyridin-2-yl)-1,4,6,7-tetrahydro-5H-imidazo[4,5-c]pyridin-5-yl)-5-(pyridazin-3-yl)-1,3,4-oxadiazole] | 500 to 1000 |
| Cc1ncccc1-c1nnc(N2CCc3[nH]cnc3[C@@H]2c2cc3c(C)cccn3n2)o1 [Example 2207, (R)-2-(4-(4-methylpyrazolo[1,5-a]pyridin-2-yl)-1,4,6,7-tetrahydro-5H-imidazo[4,5-c]pyridin-5-yl)-5-(2-methylpyridin-3-yl)-1,3,4-oxadiazole] | > 5000 |
| O=C([C@H]1CC1(F)F)N1CCc2[nH]cnc2[C@H]1c1cc2c(F)cccn2n1 [Example 2223, ((R)-2,2-difluorocyclopropyl)((S)-4-(4-fluoropyrazolo[1,5-a]pyridin-2-yl)-1,4,6,7-tetrahydro-5H-imidazo[4,5-c]pyridin-5-yl)methanone] | 1000 to 5000 |
| c1cc(C2CC2)c2cc([C@H]3c4nc[nH]c4CCN3c3cnccn3)nn2c1 [Example 2224, (R)-4-(4-cyclopropylpyrazolo[1,5-a]pyridin-2-yl)-5-(pyrazin-2-yl)-4,5,6,7-tetrahydro-1H-imidazo[4,5-c]pyridine] | 1000 to 5000 |
| c1cc(C2CC2)c2cc([C@@H]3c4nc[nH]c4CCN3c3cnccn3)nn2c1 [Example 2225, (S)-4-(4-cyclopropylpyrazolo[1,5-a]pyridin-2-yl)-5-(pyrazin-2-yl)-4,5,6,7-tetrahydro-1H-imidazo[4,5-c]pyridine] | < 500 |
| Cc1ncccc1-c1nnc(N2CCc3[nH]cnc3[C@H]2c2cc3c(Cl)cccn3n2)o1 [Example 2236, (S)-2-(4-(4-chloropyrazolo[1,5-a]pyridin-2-yl)-1,4,6,7-tetrahydro-5H-imidazo[4,5-c]pyridin-5-yl)-5-(2-methylpyridin-3-yl)-1,3,4-oxadiazole] | < 500 |
| c1ccc(N2CCc3[nH]cnc3[C@@H]2c2cc3ccccn3n2)cc1 [Example 2238, (R)-5-phenyl-4-(pyrazolo[1,5-a]pyridin-2-yl)-4,5,6,7-tetrahydro-1H-imidazo[4,5-c]pyridine] | 1000 to 5000 |
| c1ccc(N2CCc3[nH]cnc3[C@H]2c2cc3ccccn3n2)cc1 [Example 2239, (S)-5-phenyl-4-(pyrazolo[1,5-a]pyridin-2-yl)-4,5,6,7-tetrahydro-1H-imidazo[4,5-c]pyridine] | < 500 |
| Cc1cccn2nc([C@@H]3c4nc[nH]c4CCN3C(=O)c3cnc(-c4cnccn4)o3)cc12 [Example 2240, (S)-(4-(4-methylpyrazolo[1,5-a]pyridin-2-yl)-1,4,6,7-tetrahydro-5H-imidazo[4,5-c]pyridin-5-yl)(2-(pyrazin-2-yl)oxazol-5-yl)methanone] | 500 to 1000 |
| Cc1cccn2nc([C@H]3c4nc[nH]c4CCN3C(=O)c3cnc(-c4cnccn4)o3)cc12 [Example 2241, (R)-(4-(4-methylpyrazolo[1,5-a]pyridin-2-yl)-1,4,6,7-tetrahydro-5H-imidazo[4,5-c]pyridin-5-yl)(2-(pyrazin-2-yl)oxazol-5-yl)methanone] | > 5000 |
| O=C(c1cnc(-c2cnccn2)o1)N1CCc2[nH]cnc2[C@H]1c1cc2c(C(F)(F)F)cccn2n1 [Example 2244, (S)-(2-(pyrazin-2-yl)oxazol-5-yl)(4-(4-(trifluoromethyl)pyrazolo[1,5-a]pyridin-2-yl)-1,4,6,7-tetrahydro-5H-imidazo[4,5-c]pyridin-5-yl)methanone] | 500 to 1000 |
| O=C(c1cnc(-c2cnccn2)o1)N1CCc2[nH]cnc2[C@@H]1c1cc2c(C(F)(F)F)cccn2n1 [Example 2245, (R)-(2-(pyrazin-2-yl)oxazol-5-yl)(4-(4-(trifluoromethyl)pyrazolo[1,5-a]pyridin-2-yl)-1,4,6,7-tetrahydro-5H-imidazo[4,5-c]pyridin-5-yl)methanone] | > 5000 |
